Results: patent EP3875456A1, “HETERO-BIFUNCTIONAL PROTEOLYSIS-TARGETING CHIMERAS (PROTACS) FOR THE SELECTIVE DEGRADATION OF FK506-BINDING PROTEINS (FKBPS)” (Technische Universität Darmstadt, priority 2020, dated 2021)

Target: T1, FKBP51FK1 (Homo sapiens, UniProt Q13451)
T1 construct: FKBP51FK1
T1 sequence (Q13451 42-130 limits assumed): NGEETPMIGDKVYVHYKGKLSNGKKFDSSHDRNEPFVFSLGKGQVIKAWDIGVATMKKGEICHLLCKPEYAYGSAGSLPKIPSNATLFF
Test: Binding affinities of exemplary compounds to FKBP51
Method: Binding to FKBP51 is an important prerequisite in order to allow degradation of FKBP51. Thus, the binding affinities of the newly synthesized molecules (table 1) were tested.

Row | Compound | Ki
1 | COc1cccc([C@@H](CCc2ccc(OCc3cn(CCOCCOCC(=O)Nc4cccc5c4C(=O)N(C4CCC(=O)NC4=O)C5=O)nn3)c(OC)c2)OC(=O)[C@@H]2CCCCN2C(=O)[C@H](c2cc(OC)c(OC)c(OC)c2)C2CCCCC2)c1 (stereo partly drawn) [MTQ334, (25)-(1R)-3-(4-((1-(2-(2-(2-((2-(2,6-Dioxopiperidin-3-yl)-1,3-dioxoisoindolin-4-yl)amino)-2-oxoethoxy)ethoxy)ethyl)-1H-1,2,3-triazol-4-yl)methoxy)-3-methoxyphenyl)-1-(3-methoxyphenyl)propyl 1-((S)-2-cyclohexyl-2-(3,4,5-trimethoxyphenyl)acetyl)piperidine-2-carboxylate] | 21 ± 10 nM
2 | COc1ccc(CC[C@@H](OC(=O)[C@@H]2CCCCN2C(=O)[C@H](c2cc(OC)c(OC)c(OC)c2)C2CCCCC2)c2cccc(OCc3cn(CCOCCOCCOCCOCCOCC(=O)Nc4cccc5c4C(=O)N(C4CCC(=O)NC4=O)C5=O)nn3)c2)cc1OC (stereo partly drawn) [MTQ208, (2S)-(1R)-3-(3,4-Dimethoxyphenyl)-1-(3-((1-(17-((2-(2,6-dioxopiperidin-3-yl)-1,3-dioxoisoindolin-4-yl)amino)-17-oxo-3,6,9,12,15-pentaoxaheptadecyl)-1H-1,2,3-triazol-4-yl)methoxy)phenyl)propyl 1-((S)-2-cyclohexyl-2-(3,4,5-trimethoxyphenyl)acetyl)piperidine-2-carboxylate] | 5 ± 1 nM
3 | COc1cccc([C@@H](CCc2ccc(OCc3cn(CCOCCOCCOCCOCC(=O)N[C@H](C(=O)N4C[C@H](O)C[C@H]4C(=O)NCc4ccc(-c5scnc5C)cc4)C(C)(C)C)nn3)c(OC)c2)OC(=O)[C@@H]2CCCCN2C(=O)[C@H](c2cc(OC)c(OC)c(OC)c2)C2CCCCC2)c1 [MTQ331, (S)-(R)-3-(4-((1-((5)-16-((25,4R)-4-Hydroxy-2-((4-(4-methylthiazol-5-yl)benzyl)carbamoyl)pyrrolidine-l-carbonyl)-17,17-dimethyl-14-oxo-3,6,9,12-tetraoxa-15-azaoctadecyl)-1H-1,2,3-triazol-4-yl)methoxy)-3-methoxyphenyl)-1-(3-methoxyphenyl)propyl 1-((S)-2-cyclohexyl-2-(3,4,5-trimethoxyphenyl)acetyl)piperidine-2-carboxylate] | 59 ± 22 nM
4 | COc1cccc([C@H](CCc2ccc(OCc3cn(CCOCCOCCOCC(=O)N[C@H](C(=O)N4C[C@H](O)C[C@H]4C(=O)NCc4ccc(-c5scnc5C)cc4)C(C)(C)C)nn3)c(OC)c2)OC(=O)[C@H]2CCCCN2C(=O)[C@H](c2cc(OC)c(OC)c(OC)c2)C2CCCCC2)c1 [MTQ330, (S)-(R)-3-(4-((1-((S)-13-((2S,4R)-4-Hydroxy-2-((4-(4-methylthiazol-5-yl)benzyl)carbamoyl)pyrrolidine-1-carbonyl)-14,14-dimethyl-11-oxo-3,6,9-trioxa-12-azapentadecyl)-1H-1,2,3-triazol-4-yl)methoxy)-3-methoxyphenyl)-1-(3-methoxyphenyl)propyl 1-((S)-2-cyclohexyl-2-(3,4,5-trimethoxyphenyl)acetyl)piperidine-2-carboxylate] | 86 ± 26 nM
5 | COc1ccc(CC[C@H](OC(=O)[C@H]2CCCCN2C(=O)[C@H](c2cc(OC)c(OC)c(OC)c2)C2CCCCC2)c2cccc(OCc3cn(CCOCCOCCOCC(=O)N[C@H](C(=O)N4C[C@H](O)C[C@H]4C(=O)NCc4ccc(-c5scnc5C)cc4)C(C)(C)C)nn3)c2)cc1OC [MTQ201, (S)-(R)-3-(3,4-Dimethoxyphenyl)-1-(3-((1-((S)-13-((2S,4R)-4-hydroxy-2-((4-(4-methylthiazol-5-yl)benzyl)carbamoyl)pyrrolidine-1-carbonyl)-14,14-dimethyl-11-oxo-3,6,9-trioxa-12-azapentadecyl)-1H-1,2,3-triazol-4-yl)methoxy)phenyl)propyl 1-((S)-2-cyclohexyl-2-(3,4,5-trimethoxyphenyl)acetyl)piperidine-2-carboxylate] | 23 ± 7 nM
6 | COc1cccc([C@@H](CCc2ccc(OCc3cn(CCOCC(=O)Nc4cccc5c4C(=O)N(C4CCC(=O)NC4=O)C5=O)nn3)c(OC)c2)OC(=O)[C@@H]2CCCCN2C(=O)[C@H](c2cc(OC)c(OC)c(OC)c2)C2CCCCC2)c1 (stereo partly drawn) [MTQ333, (25)-(1R)-3-(4-((1-(2-(2-((2-(2,6-Dioxopiperidin-3-yl)-1,3-dioxoisoindolin-4-yl)amino)-2-oxoethoxy)ethyl)-1H-1,2,3-triazol-4-yl)methoxy)-3-methoxyphenyl)-1-(3-methoxyphenyl)propyl 1-((S)-2-cyclohexyl-2-(3,4,5-trimethoxyphenyl)acetyl)piperidine-2-carboxylate] | 22 ± 6 nM
7 | COc1cccc([C@H](CCc2ccc(OCc3cn(CCOCCOCC(=O)N[C@H](C(=O)N4C[C@H](O)C[C@H]4C(=O)NCc4ccc(-c5scnc5C)cc4)C(C)(C)C)nn3)c(OC)c2)OC(=O)[C@H]2CCCCN2C(=O)[C@H](c2cc(OC)c(OC)c(OC)c2)C2CCCCC2)c1 [MTQ329, (S)-(R)-3-(4-((1-(2-(2-(2-(((S)-1-((2S,4R)-4-Hydroxy-2-((4-(4-methylthiazol-5-yl)benzyl)carbamoyl)pyrrolidin-1-yl)-3,3-dimethyl-1-oxobutan-2-yl)amino)-2-oxoethoxy)ethoxy)ethyl)-1H-1,2,3-triazol-4-yl)methoxy)-3-methoxyphenyl)-1-(3-methoxyphenyl)propyl 1-((S)-2-cyclohexyl-2-(3,4,5-trimethoxyphenyl)acetyl)piperidine-2-carboxylate] | 60 ± 16 nM
8 | COc1ccc(CC[C@@H](OC(=O)[C@@H]2CCCCN2C(=O)[C@H](c2cc(OC)c(OC)c(OC)c2)C2CCCCC2)c2cccc(OCc3cn(CCOCCOCC(=O)Nc4cccc5c4C(=O)N(C4CCC(=O)NC4=O)C5=O)nn3)c2)cc1OC (stereo partly drawn) [MTQ205, (2S)-(1R)-3-(3,4-Dimethoxyphenyl)-1-(3-((1-(2-(2-(2-((2-(2,6-dioxopiperidin-3-yl)-1,3-dioxoisoindolin-4-yl)amino)-2-oxoethoxy)ethoxy)ethyl)-1H-1,2,3-triazol-4-yl)methoxy)phenyl)propyl 1-((S)-2-cyclohexyl-2-(3,4,5-trimethoxyphenyl)acetyl)piperidine-2-carboxylate] | 16 ± 5 nM
9 | COc1cccc([C@H](CCc2ccc(OCc3cn(CCOCC(=O)N[C@H](C(=O)N4C[C@H](O)C[C@H]4C(=O)NCc4ccc(-c5scnc5C)cc4)C(C)(C)C)nn3)c(OC)c2)OC(=O)[C@H]2CCCCN2C(=O)[C@H](c2cc(OC)c(OC)c(OC)c2)C2CCCCC2)c1 [MTQ328, (S)-(R)-3-(4-((1-(2-(2-(((S)-1-((2S,4R)-4-Hydroxy-2-((4-(4-methylthiazol-5-yl)benzyl)carbamoyl)pyrrolidin-1-yl)-3,3-dimethyl-1-oxobutan-2-yl)amino)-2-oxoethoxy)ethyl)-1H-1,2,3-triazol-4-yl)methoxy)-3-methoxyphenyl)-1-(3-methoxyphenyl)propyl 1-((S)-2-cyclohexyl-2-(3,4,5-trimethoxyphenyl)acetyl)piperidine-2-carboxylate] | 47 ± 19 nM
10 | C#CCOc1cc(CCC(OC(=O)C2CCCCN2C(=O)[C@H](c2cc(OC)c(OC)c(OC)c2)C2CCCCC2)c2cccc(OC)c2)ccc1OC (stereo in doubt) [Molecule (10), (S)-(R)-3-(4-methoxy-3-(prop-2-yn-1-yloxy)phenyl)-1-(3-methoxyphenyl)propyl 1-((S)-2-cyclohexyl-2-(3,4,5-trimethoxyphenyl)acetyl)piperidine-2-carboxylate] | 149 ± 39 nM
11 | COc1ccc(CC[C@H](OC(=O)[C@H]2CCCCN2C(=O)[C@H](c2cc(OC)c(OC)c(OC)c2)C2CCCCC2)c2cccc(OCc3cn(CCOCC(=O)N[C@H](C(=O)N4C[C@H](O)C[C@H]4C(=O)NCc4ccc(-c5scnc5C)cc4)C(C)(C)C)nn3)c2)cc1OC (stereo in doubt) [MTQ199, (S)-(R)-3-(3,4-Dimethoxyphenyl)-1-(3-((1-(2-(2-(((S)-1-((2S,4R)-4-hydroxy-2-((4-(4-methylthiazol-5-yl)benzyl)carbamoyl)pyrrolidin-1-yl)-3,3-dimethyl-1-oxobutan-2-yl)amino)-2-oxoethoxy)ethyl)-1H-1,2,3-triazol-4-yl)methoxy)phenyl)propyl 1-((S)-2-cyclohexyl-2-(3,4,5-trimethoxyphenyl)acetyl)piperidine-2-carboxylate] | 25 ± 6 nM
12 | COc1ccc(CC[C@@H](OC(=O)[C@@H]2CCCCN2C(=O)[C@H](c2cc(OC)c(OC)c(OC)c2)C2CCCCC2)c2cccc(OCc3cn(CCOCC(=O)Nc4cccc5c4C(=O)N(C4CCC(=O)NC4=O)C5=O)nn3)c2)cc1OC (stereo partly drawn) [MTQ204, (25)-(1R)-3-(3,4-Dimethoxyphenyl)-1-(3-((1-(2-(2-((2-(2,6-dioxopiperidin-3-yl)-1,3-dioxoisoindolin-4-yl)amino)-2-oxoethoxy)ethyl)-1H-1,2,3-triazol-4-yl)methoxy)phenyl)propyl1-((S)-2-cyclohexyl-2-(3,4,5-trimethoxyphenyl)acetyl)piperidine-2-carboxylate] | 19 ± 5 nM
13 | COc1ccc(CC[C@@H](OC(=O)[C@@H]2CCCCN2C(=O)[C@H](c2cc(OC)c(OC)c(OC)c2)C2CCCCC2)c2cccc(OCc3cn(CCOCCOCCOCCOCC(=O)Nc4cccc5c4C(=O)N(C4CCC(=O)NC4=O)C5=O)nn3)c2)cc1OC (stereo partly drawn) [MTQ207, (2S)-(1R)-3-(3,4-Dimethoxyphenyl)-1-(3-((1-(14-((2-(2,6-dioxopiperidin-3-yl)-1,3-dioxoisoindolin-4-yl)amino)-14-oxo-3,6,9,12-tetraoxatetradecyl)-1H-1,2,3-triazol-4-yl)methoxy)phenyl)propyl 1-((S)-2-cyclohexyl-2-(3,4,5-trimethoxyphenyl)acetyl)piperidine-2-carboxylate] | 18 ± 4 nM
14 | COc1cccc([C@@H](CCc2ccc(OCc3cn(CCOCCOCCOCCOCCOCC(=O)N[C@H](C(=O)N4C[C@H](O)C[C@H]4C(=O)NCc4ccc(-c5scnc5C)cc4)C(C)(C)C)nn3)c(OC)c2)OC(=O)[C@@H]2CCCCN2C(=O)[C@H](c2cc(OC)c(OC)c(OC)c2)C2CCCCC2)c1 [MTQ332, (S)-(R)-3-(4-((1-((S)-19-((2S,4R)-4-Hydroxy-2-((4-(4-methylthiazo1-5-yl)benzyl)carbamoyl)pyrrolidine-1-carbonyl)-20,20-dimethyl-17-oxo-3,6,9,12,15-pentaoxa-18-azahenicosyl)-1H-1,2,3-triazol-4-yl)methoxy)-3-methoxyphenyl)-1-(3-methoxyphenyl)propyl 1-((S)-2-cyclohexyl-2-(3,4,5-trimethoxyphenyl)acetyl)piperidine-2-carboxylate] | 34 ± 10 nM
